Experimental data: the NIST ThermoML archive (doi:10.1021/je060032n)

Assay: xn = mol fraction of the nth substance listed
Details: 101 kPa, Liquid; for viscosity: Capillary tube (Ostwald / Ubbelohde) method

NCCNCCO [N-(2-aminoethyl)ethanolamine] + O
Details	mass density [kg/m3]	viscosity [mPa·s]
298.15 K, x1 = 0.05	1015.65	2.45
298.15 K, x1 = 0.07	1022.28	3.87
298.15 K, x1 = 0.0999	1030.85	6.76
298.15 K, x1 = 0.1992	1047.37	30
298.15 K, x1 = 0.3	1050.66	70.9
298.15 K, x1 = 0.3997	1048.18	104
298.15 K, x1 = 0.4991	1044.05	121
298.15 K, x1 = 0.599	1039.62	124
298.15 K, x1 = 0.6991	1035.48	121
298.15 K, x1 = 0.7997	1031.83	116
298.15 K, x1 = 0.9002	1028.28	109
298.15 K, x1 = 1	1025.28	98.6
303.15 K, x1 = 0.05	1013.65	2.16
303.15 K, x1 = 0.07	1020.01	3.24
303.15 K, x1 = 0.0999	1028.24	5.5
303.15 K, x1 = 0.1992	1044.02	22.6
303.15 K, x1 = 0.3	1047.05	50.4
303.15 K, x1 = 0.3997	1044.5	72.8
303.15 K, x1 = 0.4991	1040.33	83.9
303.15 K, x1 = 0.599	1035.89	87
303.15 K, x1 = 0.6991	1031.74	84.8
303.15 K, x1 = 0.7997	1028.11	82.5
303.15 K, x1 = 0.9002	1024.57	78.1
303.15 K, x1 = 1	1021.53	70.5
313.15 K, x1 = 0.05	1009.22	1.63
313.15 K, x1 = 0.07	1015.13	2.29
313.15 K, x1 = 0.0999	1022.7	3.83
313.15 K, x1 = 0.1992	1037.13	13.5
313.15 K, x1 = 0.3	1039.7	27.8
313.15 K, x1 = 0.3997	1037.01	38.9
313.15 K, x1 = 0.4991	1032.79	44.8
313.15 K, x1 = 0.599	1028.36	46.5
313.15 K, x1 = 0.6991	1024.21	45.7
313.15 K, x1 = 0.7997	1020.57	44.8
313.15 K, x1 = 0.9002	1017.06	44.4
313.15 K, x1 = 1	1014.02	39.4
323.15 K, x1 = 0.05	1004.24	1.26
323.15 K, x1 = 0.07	1009.76	1.75
323.15 K, x1 = 0.0999	1016.8	2.8
323.15 K, x1 = 0.1992	1030.03	8.7
323.15 K, x1 = 0.3	1032.15	16.5
323.15 K, x1 = 0.3997	1029.37	22.5
323.15 K, x1 = 0.4991	1025.13	25.6
323.15 K, x1 = 0.599	1020.71	26.7
323.15 K, x1 = 0.6991	1016.59	26.4
323.15 K, x1 = 0.7997	1012.96	26
323.15 K, x1 = 0.9002	1009.48	26
323.15 K, x1 = 1	1006.44	23.4
333.15 K, x1 = 0.05	998.75	1.01
333.15 K, x1 = 0.07	1003.89	1.38
333.15 K, x1 = 0.0999	1010.53	2.05
333.15 K, x1 = 0.1992	1022.69	5.9
333.15 K, x1 = 0.3	1024.44	10.5
333.15 K, x1 = 0.3997	1021.57	13.8
333.15 K, x1 = 0.4991	1017.35	15.8
333.15 K, x1 = 0.599	1012.96	16.5
333.15 K, x1 = 0.6991	1008.88	16.5
333.15 K, x1 = 0.7997	1005.3	16.4
333.15 K, x1 = 0.9002	1001.84	16.5
333.15 K, x1 = 1	998.83	14.8
343.15 K, x1 = 0.05	992.77	0.839
343.15 K, x1 = 0.07	997.34	1.11
343.15 K, x1 = 0.0999	1003.89	1.6
343.15 K, x1 = 0.1992	1015.09	4.2
343.15 K, x1 = 0.3	1016.53	7
343.15 K, x1 = 0.3997	1013.6	9.1
343.15 K, x1 = 0.4991	1009.42	10.3
343.15 K, x1 = 0.599	1005.1	10.8
343.15 K, x1 = 0.6991	1001.06	10.8
343.15 K, x1 = 0.7997	997.54	10.8
343.15 K, x1 = 0.9002	994.11	10.7
343.15 K, x1 = 1	991.15	10.1
